Among the data in patent US4452788A, “Substituted 8-phenylxanthines” (Warner-Lambert Company, priority 1982, dated 1984) are IC50 values, retold here.

Each structure is given as a SMILES string. pIC50: −log10 of the molar value. Structures can show the parent of a compound that is named as a salt.

The first test deals with adenosine receptor. The test can be described thus: adenosine receptor antagonism assayed by the procedure described in Proc. Natl. Acad. Sci. USA, 77, 5547 (1980). The conditions noted are these: procedure of Proc. Natl. Acad. Sci. USA, 77, 5547 (1980). It is filed as binding. An excerpt:
The relevant teachings of this manuscript are incorporated herein by reference.
By pIC50 is commonly meant −log10 of the IC50, conventionally taken in molar units. `CCn1c(=O)c2[nH]c(-c3cccc(S(=O)(=O)NCCN(C)C)c3)nc2n(CC)c1=O` [C2 H5, C2 H5, H, 3-SO2 NH(CH2)2 N(CH3)2, 3-(1,3-Diethyl-2,3,6,7-tetrahydro-2,6,-dioxo-1H-purin-8-yl)-N-[2-(dimethylamino)ethyl]benzenesulfonamide]: the pIC50 was 6.26. For `CCn1c(=O)c2[nH]c(-c3cccc(S(=O)(=O)O)c3)nc2n(CC)c1=O` [C2 H5, C2 H5, H, 3-SO3 K, 3-(1,3-diethyl-2,3,6,7-tetrahydro-2,6-dioxo-1H-purin-8-yl)benzenesulfonic acid potassium salt], the negative logarithm of the IC50 (pIC50) is 4.43.

The compound `CCn1c(=O)c2[nH]c(-c3ccc(S(=O)(=O)N4CCN(C)CC4)cc3)nc2n(CC)c1=O` [C2 H5, C2 H5, H, 4-SO2 N(CH2 CH2)2 NCH3, 1-[[4-(1,3-Diethyl-2,3,6,7-tetrahydro-2,6,-dioxo-1H-purin-8-yl)phenyl]sulfonyl]-4-methyl-piperazine] showed a pIC50 of 6.82. As to `CCn1c(=O)c2[nH]c(-c3ccc(S(=O)(=O)N4CCOCC4)cc3)nc2n(CC)c1=O` [C2 H5, C2 H5, H, 4-SO2 N(CH2 CH2)2 O, 4-[[4-(1,3-Diethyl-2,3,6,7-tetrahydro-2,6-dioxo-1H-purin-8-yl)phenyl]sulfonyl]morpholine], the negative logarithm of the IC50 (pIC50) is 6.52.

The compound `CCn1c(=O)c2[nH]c(-c3ccc(S(N)(=O)=O)cc3)nc2n(CC)c1=O` [C2 H5, C2 H5, H, 4-SO2 NH2, 4-(1,3-diethyl-2,3,6,7-tetrahydro-2,6-dioxo-1H-purin-8-yl)benzenesulfonamide] gave a negative-log IC50 (pIC50) of 7.30.

With `CCn1c(=O)c2[nH]c(-c3ccc(S(=O)(=O)NCCCN(C)C)cc3)nc2n(CC)c1=O` [C2 H5, C2 H5, H, 4-SO2 NH(CH2)3 N(CH3)2, 4-(1,3-Diethyl-2,3,6,7-tetrahydro-2,6-dioxo-1H-purin-8-yl)-N-[3-(dimethylamino)propyl]benzenesulfonamide], the pIC50 is 7.15.

As for `CCn1c(=O)c2[nH]c(-c3ccc(S(=O)(=O)O)cc3)nc2n(CC)c1=O` [C2 H5, C2 H5, H, 4-SO3 K], the negative logarithm of the IC50 (pIC50) is 5.31. As for `CCCn1c(=O)c2[nH]c(-c3ccc(S(=O)(=O)NCCN(C)C)cc3)nc2n(CCC)c1=O` [N-[2-(Dimethylamino)ethyl]-4-(2,3,6,7-tetrahydro-2,6-dioxo-1,3-dipropyl-1H-purin-8-yl)benzenesulfonamide], the pIC50 was 8.00. `CCCn1c(=O)c2[nH]c(-c3ccc(S(=O)(=O)O)cc3)nc2n(CCC)c1=O` [n-C3 H7, n-C3 H7, H, 4-SO3 K, 4-(1,3-dipropyl-2,3,6,7-tetrahydro-2,6-dioxo-1H-purin-8-yl)benzenesulfonic acid potassium salt]: the pIC50 was 7.00.

The next test deals with adenosine receptor.
Experiment: not given
The conditions noted are these: *Results reported in Proc. Natl. Acad. Sci. USA, 77, 5547(1980); cited from earlier work.
As to `Cn1c(=O)c2[nH]c(-c3ccc(S(=O)(=O)O)cc3)nc2n(C)c1=O` [CH3, CH3, H, 4-SO3 H, 4-(1,3-dimethyl-2,3,6,7-tetrahydro-2,6-dioxo-1H-purin-8-yl)benzenesulfonicacid], the negative-log IC50 (pIC50) is 4.70. In the case of `Cn1c(=O)c2[nH]cnc2n(C)c1=O` [theophylline], the negative-log IC50 (pIC50) is 4.82.
